# Laboratory results from patent EP4721746A1, “TREATMENT OF MALIGNANT TUMOR” (SymBio Pharmaceuticals Limited, priority 2023, dated 2024).
# Legend:
# Z4739 cells = experiment: Western blotting of lysates of BCV-treated Z4739 cells; format: cell-based; details: Z4739 treated with 0.1 and 1 µg/mL of BCV; Western blot, Fig. 13
# Procedure: Lysates of Z4739 cells treated with 0.1 and 1 µg/mL of BCV were separated by SDS-PAGE using 4-15% Mini-PROTEAN™ TGX Stain-Free™ Protein Gels (Bio-Rad Laboratories, Hercules, CA, USA), and the separated components were transferred to a 0.2 µm PVDF membrane (Bio-Rad Laboratories, Hercules, California, USA). After blocking for 1 hour in a TBST solution (50 mM Tris/HCl, pH 7.4, 150 mM NaCl, 0.1% Tween-20) containing 5% skimmed milk powder (Bio-Rad Laboratories, Hercules, CA, USA) or 5% bovine serum albumin (Sigma-Aldrich, Darmstadt, Germany), the membrane was exposed to respective primary antibodies overnight at 4°C with gentle shaking. Furthermore, exposure to an HRP-conjugated anti-rabbit or anti-mouse antibody (Cytiva, Washington D.C., USA) was performed for 1 hour, and finally, chemiluminescent detection was performed using a SuperSignal Substrate Western Blotting Kit (Thermo Fisher Scientific, MA, USA) and imaged on a ChemiDoc™ XRS+ system (Bio-Rad Laboratories, Hercules, California, USA) using Image Lab™ software.
# [1] = test system: B-cell lymphoma cells (OCI-LY19); experiment: In vivo study, NSG mice inoculated with OCI-LY19
# Procedure: (§1) 0.5 x 10^6 cells of OCI-LY19 were inoculated into 6-week-old female NSG mice, and BCV or a control solvent was administered intraperitoneally at a dosage of 40 mg/kg twice weekly. Tumor measurements were recorded at each time point (Days 1, 5, 6, and 7) until the tumor size in the control group reached approximately 2500 mm^3. Mice were euthanized according to the IACUC guidelines. The tumor sizes and weights of the experimental group and the control group (n=5 per group) were averaged on Day 7 and compared statistically. Throughout the experiment, signs of toxicity including diarrhea and weight loss were monitored.
# [2] = test system: NK/T-cell lymphoma cells (NK-S1); experiment: In vivo study, NSG mice inoculated with NK-S1
# Procedure: as §1, with “NK-S1” for “OCI-LY19”, “twice weekly” for “at each time point (Days 1, 5, 6, and 7)”, “2000” for “2500”, “sizes” for “sizes and weights”, “(n=8” for “(n=5”, “at each time point (Days 1, 5, 8, 12, and 15)” for “on Day 7”
# [3] = test system: T-cell lymphoma cells (Z4739); experiment: In vivo study, NSG mice inoculated with Z4739
# Procedure: as §1, with “Z4739” for “OCI-LY19”, “4, 7, 11, 18,” for “1, 5, 6,”, “21)” for “7)”, “21” for “7”
# Z4739 cell line = experiment: Whole transcriptome sequencing and GSEA of BCV-treated Z4739 cell line; format: cell-based; details: Z4739 treated with 0.1 and 1 µg/mL of BCV
# Procedure: The effect of BCV on the gene expression of a T-cell lymphoma cell line was examined. Whole transcriptome sequencing of the Z4739 cell line treated with 0.1 and 1 µg/mL of BCV was performed, and Gene set enrichment analysis (GSEA) was performed using the Molecular Signatures Database (MSigDB) Hallmark gene set. […] Individual gene expression profiles (IFNB1, IFNY, CCL5, CXCL10, MYC) obtained from the whole transcriptome sequencing results were expressed as the number of transcripts detected per million reads.
# [4] = test system: T-cell lymphoma cell lines; experiment: CellTiter-Glo 2.0 cell viability assay, T-cell lymphoma cell lines; format: cell-based; details: 11 T-cell lymphoma cell lines; Fig. 9
# Procedure: The effect of BCV on the viability of 11 different T-cell lymphoma cell lines was examined. Cell viability was quantified using Promega CellTiter-Glo(registered trademark) 2.0 Cell Viability Assay (Promega, Madison, Wisconsin, USA) according to the manufacturer's protocol. Specifically, cells were plated in a 96-well plate at a concentration of 2×10^3 cells in 100 µL of culture medium, and the drug was added at each concentration. After each time point, Promega CellTiter-Glo(registered trademark) 2.0 Cell Viability Assay reagent was added to the wells and incubated at room temperature for 10 minutes, and subsequently, absorbance at 480 nm was measured using a Tecan M200 Infinite 96-well plate reader and iControl software 1.6 (Tecan, Männedorf, Switzerland). Cell viability was calculated as a percentage of a control absorbance. The growth-inhibitory effect was analyzed by generating a dose-response curve as a plot of the percentage of viable cells against the drug concentration, and their IC50s were estimated using GraphPad Prism version 8.0.2 (GraphPad Software). All reactions were performed in triplicate.
# [5] = test system: NK/T-cell lymphoma cell lines; experiment: CellTiter-Glo 2.0 cell viability assay, NK/T-cell lymphoma cell lines; format: cell-based; details: 11 NK/T-cell lymphoma cell lines; Fig. 1
# Procedure: The effect of BCV on cell viability was examined in 11 different NK/T-cell lymphoma cell lines. Cell viability was quantified using Promega CellTiter-Glo(registered trademark) 2.0 Cell Viability Assay (Promega, Madison, Wisconsin, USA) according to the manufacturer's protocol. Specifically, cells were plated in a 96-well plate at a concentration of 2×10^3 cells in 100 µL of culture medium, and the drug (BCV) was added at each concentration. After each time point, Promega CellTiter-Glo (registered trademark) 2.0 Cell Viability Assay reagent was added to the wells and incubated at room temperature for 10 minutes, and subsequently, absorbance at 480 nm was measured using a Tecan M200 Infinite 96-well plate reader and iControl software 1.6 (Tecan, Männedorf, Switzerland). Cell viability was calculated as a percentage of the control absorbance. The growth-inhibitory effect was analyzed by generating a dose-response curve as a plot of the percentage of viable cells against the drug concentration, and their IC50s were estimated using GraphPad Prism version 8.0.2 (GraphPad Software). All reactions were performed in triplicate.
# [6] = test system: B-cell lymphoma cell lines; experiment: CellTiter-Glo 2.0 cell viability assay, B-cell lymphoma cell lines; format: cell-based; details: 19 B-cell lymphoma cell lines; Fig. 14
# Procedure: The effect of BCV on cell viability was examined in 19 different B-cell lymphoma cell lines and a CML cell line (K-562) as a control. Cell viability was quantified using Promega CellTiter-Glo(registered trademark) 2.0 Cell Viability Assay (Promega, Madison, Wisconsin, USA) according to the manufacturer's protocol. Specifically, cells were plated in a 96-well plate at a concentration of 2×10^3 cells in 100 µL of culture medium, and the drug (BCV) was added at each concentration. After each time point, Promega CellTiter-Glo(registered trademark) 2.0 Cell Viability Assay reagent was added to the wells and incubated at room temperature for 10 minutes, and subsequently, absorbance at 480 nm was measured using a Tecan M200 Infinite 96-well plate reader and iControl software 1.6 (Tecan, Männedorf, Switzerland). Cell viability was calculated as a percentage of a control absorbance. The growth-inhibitory effect was analyzed by generating a dose-response curve as a plot of the percentage of viable cells against the drug concentration, and their IC50s were estimated using GraphPad Prism version 8.0.2 (GraphPad Software). All reactions were performed in triplicate.
smiles,measurement,setting,value
"CCCCCCCCCCCCCCCCOCCCOP(=O)(O)CO[C@H](CO)Cn1ccc(N)nc1=O [BCV, [(2S)-1-(4-amino-2-oxopyrimidin-1-yl)-3-hydroxypropan-2-yl]oxymethyl-(3-hexadecoxypropoxy)phosphinic acid]",DNA damage (phospho-H2AX),Z4739 cells,increase
same,MYC protein,Z4739 cells,decrease
same,PD-L1,Z4739 cells,increase
same,"apoptosis indicators (cleaved PARP, cleaved caspase-3)",Z4739 cells,increase
same,cell cycle-related indicators (phospho-CHK1 Ser317/Ser345),Z4739 cells,increase
same,animal's health status,"[1]; OCI-LY19 in NSG mice, 40 mg/kg intraperitoneally twice weekly",good
same,enlargement of lymphoma (tumor size),"[1]; OCI-LY19 in NSG mice, 40 mg/kg intraperitoneally twice weekly, Days 1-7, Figs. 15A-D",significantly suppressed
same,signs of toxicity: weight loss or diarrhea,"[1]; mouse, in vivo, ip, 40 mg/kg",no weight loss or diarrhea observed
same,animal's health status,"[2]; NK-S1 in NSG mice, 40 mg/kg intraperitoneally twice weekly",good
same,enlargement of lymphoma (tumor size),"[2]; NK-S1 in NSG mice, 40 mg/kg intraperitoneally twice weekly, Days 1-15, Figs. 2A-D",significantly suppressed
same,signs of toxicity: diarrhea,"[2]; mouse, in vivo, ip, 40 mg/kg",no diarrhea observed
same,animal's health status,"[3]; Z4739 in NSG mice, 40 mg/kg intraperitoneally twice weekly",good
same,enlargement of the lymphoma (tumor size),"[3]; Z4739 in NSG mice, 40 mg/kg intraperitoneally twice weekly, Figs. 10A-D",significantly suppressed
same,tumor volume,"[3]; Z4739 in NSG mice, 40 mg/kg intraperitoneally twice weekly, between Day 0 and Day 21, Fig. 10A",almost no increase in tumor volume observed
same,signs of toxicity: weight loss or diarrhea,"[3]; mouse, in vivo, ip, 40 mg/kg",no significant weight loss or diarrhea was observed
same,expression of immune activation-related genes such as INFγ,Z4739 cell line,increased
same,expression of MYC,Z4739 cell line; Figs. 12A-C,decreased
same,expression of MYC-related gene groups,Z4739 cell line; GSEA,decreased
same,expression of other oncogenic genes such as those related to mTOR,Z4739 cell line; GSEA,decreased
same,Sensitivity to BCV,[4],high in all cell lines
same,viability of T-cell lymphoma cells,[4],decreased
same,Sensitivity to BCV,[5],varied for each cell line
same,viability of NK/T-cell lymphoma cells,[5],decreased
same,Sensitivity to BCV,[6],varied for each cell line
same,viability of B-cell lymphoma cells,[6],decreased
